Laboratory results as given in the supplement of paper PMC10307832.

What was measured:
Experiment in all cases: relative viability (nuclei count vs DMSO), 5 days (fraction); higher = more cells survive
KN-93 = compound: CN(C/C=C/C1=CC=C(C=C1)Cl)CC2=CC=CC=C2N(CCO)S(=O)(=O)C3=CC=C(C=C3)OC [KN-93]
Summary of the method: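 On vehicle-anchored 1536-well plates, lung cancer cell lines held overnight at 37 °C were pinned with five library-drug doses (not always all listed) spaced by √10. With no medium change over 5 days, they were then fixed, permeabilised and Hoechst-stained in one step and imaged at 4×. MetaXpress counted nuclei, and viability is the median across plates of treated-well over vehicle-well nuclei. Acceptance needed control CV below 25% and at least one doubling.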

KN-93 + Navitoclax = compound: CN(C/C=C/C1=CC=C(C=C1)Cl)CC2=CC=CC=C2N(CCO)S(=O)(=O)C3=CC=C(C=C3)OC [KN-93] + CC1(C)CCC(c2ccc(Cl)cc2)=C(CN2CCN(c3ccc(C(=O)NS(=O)(=O)c4ccc(N[C@H](CCN5CCOCC5)CSc5ccccc5)c(S(=O)(=O)C(F)(F)F)c4)cc3)CC2)C1 [Navitoclax] (partner 0.5 µM)
Summary of the method: (§1)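 Relative viability was taken as the ratio of nuclei in treated wells to nuclei in vehicle wells. Lung cancer cell lines in 1536-well plates received compounds by pin tool one day after seeding, either one drug alone or a fixed anchor-drug dose plus five library-drug doses (not always all listed) in √10 steps. Nuclei were counted on 4× images after 5 days of treatment, and values are medians of duplicate plates.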

KN-93 + OSI-027 = compound: CN(C/C=C/C1=CC=C(C=C1)Cl)CC2=CC=CC=C2N(CCO)S(=O)(=O)C3=CC=C(C=C3)OC [KN-93] + COc1cccc2cc(-c3nc([C@H]4CC[C@H](C(=O)O)CC4)n4ncnc(N)c34)[nH]c12 [OSI-027] (partner 0.5 µM)
Summary of the method: as §1

KN-93 + Pictilisib = compound: CN(C/C=C/C1=CC=C(C=C1)Cl)CC2=CC=CC=C2N(CCO)S(=O)(=O)C3=CC=C(C=C3)OC [KN-93] + CS(=O)(=O)N1CCN(Cc2cc3nc(-c4cccc5[nH]ncc45)nc(N4CCOCC4)c3s2)CC1 [Pictilisib] (partner 1 µM)
Summary of the method: as §1

KN-93 + Decitabine = compound: CN(C/C=C/C1=CC=C(C=C1)Cl)CC2=CC=CC=C2N(CCO)S(=O)(=O)C3=CC=C(C=C3)OC [KN-93] + Nc1ncn([C@H]2C[C@H](O)[C@@H](CO)O2)c(=O)n1 [Decitabine] (partner 2 µM)
Summary of the method: as §1

Cell Line | relative viability (KN-93; 0.08 µM) | relative viability (KN-93; 0.253 µM) | relative viability (KN-93; 2.53 µM) | relative viability (KN-93; 8 µM) | relative viability (KN-93 + Navitoclax; first compound 0.08 µM) | relative viability (KN-93 + Navitoclax; first compound 0.253 µM) | relative viability (KN-93 + Navitoclax; first compound 2.53 µM) | relative viability (KN-93 + Navitoclax; first compound 8 µM) | relative viability (KN-93 + OSI-027; first compound 0.08 µM) | relative viability (KN-93 + OSI-027; first compound 0.253 µM) | relative viability (KN-93 + OSI-027; first compound 2.53 µM) | relative viability (KN-93 + OSI-027; first compound 8 µM) | relative viability (KN-93 + Pictilisib; first compound 0.08 µM) | relative viability (KN-93 + Pictilisib; first compound 0.253 µM) | relative viability (KN-93 + Pictilisib; first compound 2.53 µM) | relative viability (KN-93 + Pictilisib; first compound 8 µM) | relative viability (KN-93 + Decitabine; first compound 0.08 µM) | relative viability (KN-93 + Decitabine; first compound 0.253 µM) | relative viability (KN-93 + Decitabine; first compound 2.53 µM) | relative viability (KN-93 + Decitabine; first compound 8 µM)
NCI-H2087 | 0.788 | 1.13 | 1.12 | 0.533 | 0.931 | 0.948 | 0.982 | 0.527 | 0.481 | 0.566 | 0.586 | 0.491 | 0.839 | 0.967 | 0.898 | 0.466 | 0.28 | 0.235 | 0.273 | 0.155
NCI-H2126 | 0.96 | 0.887 | 1.08 | 0.902 | 0.814 | 0.785 | 0.929 | 0.809 | 0.691 | 0.557 | 0.638 | 0.674 | 0.482 | 0.443 | 0.499 | 0.468 | 0.51 | 0.522 | 0.656 | 0.475
NCI-H2170 | 0.761 | 1.03 | 1.01 | 0.676 | 0.537 | 0.606 | 0.542 | 0.563 | 0.713 | 0.712 | 0.728 | 0.567 | 0.303 | 0.266 | 0.319 | 0.255 | 0.468 | 0.501 | 0.49 | 0.436
NCI-H2347 | 1.03 | 1.11 | 1.08 | 0.797 | 0.696 | 0.843 | 0.794 | 0.543 | 0.379 | 0.318 | 0.371 | 0.339 | 0.572 | 0.616 | 0.696 | 0.543 | 0.57 | 0.617 | 0.643 | 0.539
NCI-H2405 | 1.03 | 1.02 | 1.03 | 0.728 | 0.94 | 0.833 | 0.767 | 0.592 | 0.62 | 0.584 | 0.697 | 0.606 | 0.407 | 0.319 | 0.446 | 0.305 | 0.741 | 0.736 | 0.77 | 0.593
NCI-H3122 | 0.972 | 1.02 | 1.07 | 0.931 | 1.11 | 1.1 | 1.1 | 0.846 | 0.967 | 1.04 | 1.04 | 0.631 | 0.622 | 0.708 | 0.639 | 0.627 | 0.364 | 0.398 | 0.359 | 0.367
PC-3 [JPC-3] | 1 | 1.11 | 1.01 | 0.866 | 0.75 | 0.824 | 0.913 | 0.64 | 0.695 | 0.749 | 0.771 | 0.55 | 0.727 | 0.708 | 0.759 | 0.645 | 0.786 | 0.781 | 0.919 | 0.739
PC-14 | 0.943 | 1.04 | 1.2 | 0.92 | 0.851 | 1 | 1.21 | 0.977 | 0.522 | 0.892 | 0.806 | 0.519 |  | 0.531 | 0.618 | 0.349 | 0.205 | 0.2 | 0.244 | 0.194
RERF-LC-KJ | 0.915 | 1.05 | 0.967 | 0.693 | 0.863 | 0.954 | 0.651 | 0.673 | 0.557 | 0.509 | 0.588 | 0.353 | 0.582 | 0.486 | 0.598 | 0.332 | 0.627 | 0.753 | 0.722 | 0.346
SK-LU-1 | 0.8 | 1.26 | 1.16 | 0.759 | 0.748 | 0.849 | 1.3 | 0.538 | 0.334 | 0.328 | 0.343 | 0.224 | 0.5 | 0.591 | 0.536 | 0.357 | 0.627 | 0.702 | 0.633 | 0.364
SK-MES-1 | 0.888 | 0.981 | 1.07 | 0.766 | 1.14 | 1.18 | 1.56 | 1.21 | 0.517 | 0.547 | 0.605 | 0.415 | 0.332 | 0.327 | 0.419 | 0.253 | 0.389 | 0.357 | 0.371 | 0.355
SW 1573 | 0.862 | 1.13 | 1.02 | 0.514 | 0.97 | 1.12 | 1.13 | 0.598 | 0.473 | 0.689 | 0.584 | 0.252 |  | 0.446 | 0.493 | 0.199 | 0.494 | 0.615 | 0.466 | 0.212
UMC-11 | 0.903 | 1.14 | 1.14 | 0.374 |  | 0.345 | 0.312 | 0.22 | 0.442 | 0.526 | 0.488 | 0.314 |  | 0.976 | 0.962 | 0.278 | 0.594 | 0.612 | 0.634 | 0.461
